Measurements from patent US11465978B2, “Anthranilic amides and the use thereof” (THE ADMINISTRATORS OF THE TULANE EDUCATIONAL FUND, priority 2013, dated 2022).
Where a name gives a salt, the structure may show the parent alone.

What was measured:
[1] = system: pERK5; assay: Western blot, inhibition of EGF-mediated formation of pERK5 in MDA-MB-231 cells; assay type: cell-based; details: for pERK-5 decrease (%) / pERK-5 relative activity (%): Example 3 table, MDA-MB-231, EGF stimulation; for pERK-5 decrease (%): DMSO = 0; for inhibition at 10 µM: Homo sapiens, MDA-MB-231, Table 1, MDA-MB-231, compounds 10 μM 30 min, then EGF 50 ng/mL 15 min, read-out: cellular pERK5 decrease (%); for pERK-5 relative activity (%): DMSO = 100; for cellular pERK5 activation (printed in the decrease column): Table 1, cell marked 'activation'
Method: (§1) FIG. 9 is a set of bar graphs showing a Western blot analysis of potential MEK5 inhibitors. The MDA-MB-231 triple negative breast cancer cell line was pretreated with compounds (10 μM) for 30 minutes followed by stimulation with epidermal growth factor (EGF, 50 ng/mL) for 15 minutes. Vehicle-treated cells were pretreated with DMSO for 30 minutes prior to EGF stimulation for 15 minutes. Protein visualization and quantification analysis were performed using LI-COR Odyssey Imager. * P<0.05 vs. Vehicle, one-way ANOVA followed by Tukey-Kramer test (n=3).
(§2) A number of compounds were tested for their potential as MEK5 inhibitors. The MDA-MB-231 triple negative breast cancer cell line was pretreated with 10 μM of compounds 24, 9b, 9a, 9c, 9e, 9f, 9d, 9h, 23, 7, and 15 for 30 minutes followed by stimulation with epidermal growth factor (EGF, 50 ng/mL) for 15 minutes. Vehicle-treated cells and known MEK1/2 inhibitor cells were pretreated with DMSO and U0126 respectively for 30 minutes prior to EGF stimulation for 15 minutes. Protein visualization and quantification analysis was performed using LI-COR Odyssey Imager. The results of the Western blot analysis are shown in FIG. 9. * P<0.05 vs. Vehicle, one-way ANOVA followed by Tukey-Kramer test (n=3).
(§3) MDA-MB-231 cells were grown on 10 cm cell culture plates [Sarstedt] in Dulbecco's Modified Eagle's Medium (DMEM; Gibco) with Ham's F12 Nutrient Mixture (1:1) (Invitrogen), 10% heat-inactivated FBS [Atlanta Biological and 0.5% penicillin/streptomycin [Gibco]. Cells were maintained at 37° C. with 5% CO2. Plating of the cells was done 36 hours before treatment in 35 mm culture plates [Sarstedt] and allowed to reach confluence. To test MEK-5 inhibitors, the cells were treated with epidermal growth factor (EGF; Sigma-Aldrich) 30 min after treatment with the compounds. 15 min after the addition of EGF, the cells were washed with 1×PBS [Sigma-Aldrich] and then lysed in 1% Triton X-100 buffer containing 20 mM Tris (pH 6.8), 137 mM NaCl, 25 mM beta glycerophosphate, 2 mM NaPPi, 2 mM EDTA, 1 mM Na3VO4, 10% glycerol, 5 μg/mL leupeptin, 5 μg/mL aprotinin, 2 mM benzamidine, 0.5 mM DTT, and 1 mM PMSF. The lysates were then centrifuged at 10,000 rpm for 10 min at 4° C.
(§4) Total protein content was assessed by Bradford Bio-Rad protein assay (Cat. No. 500-0006, Bio-Rad, Hercules, Calif.) and 30 μg of protein was loaded on a 8% SDS-PAGE gel for phosphorylated and total ERK1/2 and ERK5 proteins. After running the samples, gels were transferred to a nitrocellulose membrane (Cat. No. 926-31092, Licor Biosciences, Lincoln, Nebr.). After transfer, membranes were washed for 5 min with 1×PBS and blocked for 1 h in a Casein Blocking Buffer (Cat. No. 927-40200, Licor Biosciences) at room temperature. Membranes were then incubated overnight at 4° C. in primary antibody in CBB with 0.2% Tween-20. Antibodies included rabbit anti-phospho-ERK1/2 (Dilution—1:1000, Cat. No. 9101, Cell Signaling, Beverly, Mass.), mouse anti-total ERK1/2 (Dilution—1:1000, Cat. No. 9107, Cell Signaling), and rabbit anti-total ERK5 (Dilution—1:1,000, Cat. No. 3372, Cell Signaling). Mouse anti-α-Tubulin (Dilution—1:10,000, Cat. No. T5168, Sigma-Aldrich) was used as a loading control. After incubation with primary antibody, blots were washed in 1×PBS solution with 0.2% Tween-20 (1×PBS-T) and incubated with goat anti-rabbit (Dilution—1:10,000, Cat. No. 926-68021, LICOR Biosciences) and goat anti-mouse (Dilution—1:10,000, Cat. No. 926-32210, LICOR Biosciences) secondary antibodies for 1 h at room temperature. After washing the membranes with 1×PBS-T, the protein bands were visualized on an Odyssey Infrared Imager and quantified with Odyssey software (LICOR Biosciences).

[2] = system: pERK1/2; assay: Western blot, inhibition of EGF-mediated formation of pERK1/2 in MDA-MB-231 cells; assay type: cell-based; details: for pERK-½ decrease (%) / pERK-½ relative activity (%): Example 3 table, MDA-MB-231, EGF stimulation; for pERK-½ decrease (%): DMSO = 0; for inhibition at 10 µM: Homo sapiens, MDA-MB-231, Table 1, MDA-MB-231, compounds 10 μM 30 min, then EGF 50 ng/mL 15 min, read-out: cellular pERK1/2 decrease (%); for pERK-½ relative activity (%): DMSO = 100; for cellular pERK1/2 activation (printed in the decrease column): Table 1, cell marked 'activation'
Method: as §1, §2, §3, §4

| SMILES | pERK-5 decrease (%) [1] | inhibition at 10 µM [1] | pERK-½ decrease (%) [2] | inhibition at 10 µM [2] | other results |
| --- | --- | --- | --- | --- | --- |
| CN(C)CCN(C)C(=O)c1ccc(F)c(F)c1Nc1ccc(I)cc1F [Compound 9h, N-(2-(dimethylamino)ethyl)-3,4-difluoro-2-((2-fluoro-4-iodophenyl)amino)-N-methylbenzamide hydrochloride] | 9.4% | 9% | 27.9% | 28.2% |  |
| CN1CCN(C(=O)c2ccccc2Nc2ccc(I)cc2F)CC1 [Compound 24, (2-((2-fluoro-4-iodophenyl)amino)phenyl)(4-methylpiperazin-1-yl)methanone hydrochloride] | 30.9% | 20.9% | 33.5% | 33.5% |  |
| CCNC(=O)c1ccc(F)c(F)c1Nc1ccc(I)cc1F [Compound 9d, N-ethyl-3,4-difluoro-2-((2-fluoro-4-iodophenyl)amino)benzamide] | 8.5% | 8.5% | 98.6% | 98.6% |  |
| CN1CCN(C(=O)c2ccc(F)c(F)c2Nc2ccc(I)cc2F)CC1 [IC-D-122b] |  | 33% |  | 39% |  |
| O=C(c1ccc(F)c(F)c1Nc1ccc(I)cc1F)N1CCNCC1 [Compound 9f, (3,4-difluoro-2-((2-fluoro-4-iodophenyl)amino)phenyl)(piperazin-1-yl)methanone hydrochloride] |  |  | 99.0% | 99% | pERK-5 relative activity (%) [1]: 6.2%; cellular pERK5 activation (printed in the decrease column) [1]: activation (+4.4) % |
| O=C(NCCO)c1ccc(F)c(F)c1Nc1ccc(I)cc1F [IC-3-102] |  | 47.9% |  | -31.1% |  |
| CNC(=O)c1ccc(F)c(F)c1Nc1ccc(I)cc1F [Compound 9c, 3,4-difluoro-2-((2-fluoro-4-iodophenyl)amino)-N-methylbenzamide] | 20.4% | 20.4% | 99.6% | 99.6% |  |
| CN(c1ccc(I)cc1F)c1c(C(=O)O)ccc(F)c1F [SC-2-32, 3,4-difluoro-2-((2-fluoro-4-iodophenyl)(methyl)amino)benzoic acid] |  |  | 33.5% |  | pERK-5 relative activity (%) [1]: 5.5% |
| CC(C)(C)OC(=O)N1CCN(C(=O)c2ccc(F)c(F)c2Nc2ccc(I)cc2F)CC1 [Compound 9g, Tert-butyl 4-(3,4-difluoro-2-((2-fluoro-4-iodophenyl)amino)benzoyl)piperazine-1-carboxylate] | 8.4% | 8.4% | 70.9% | 70.9% |  |
| O=C(O)c1ccc(F)c(F)c1Nc1ccccc1F [Compound 13, 3,4-difluoro-2-((2-fluorophenyl)amino)benzoic acid] | 11.1% |  |  |  | pERK-½ relative activity (%) [2]: 7.1% |
| O=C(c1ccc(F)c(F)c1Nc1ccc(I)cc1F)N1CCCCC1 [IC-3-97] |  | 87.1% |  | 42.4% |  |
| CN1CCN(C(=O)c2ccc(F)c(F)c2Nc2ccccc2F)CC1.O=C(O)/C=C/C(=O)O [SC-2-45, (3,4-difluoro-2-((2-fluorophenyl)amino)phenyl)(4-methylpiperazin-1-yl)methanone mono-fumarate] | 40.5% |  | 16.5% |  |  |
| O=C(c1ccc(F)c(F)c1Nc1ccc(I)cc1F)N1CCOCC1 [IC-3-93] |  | 76.3% |  | 47.8% |  |
| O=C(O)c1ccc(F)c(F)c1Nc1ccc(I)cc1F [Compound 7, 3,4-difluoro-2-((2-fluoro-4-iodophenyl)amino)benzoic acid] | 20.1% | 20.1% | 98.5% | 98.5% |  |
| CN(C)C(=O)c1ccc(F)c(F)c1Nc1ccc(I)cc1F [Compound 9a, 3,4-difluoro-2-((2-fluoro-4-iodophenyl)amino)-N,N-dimethylbenzamide] | 0.2% | 0.2% | 87.3% | 87.3% |  |
| O=C(O)c1ccc(F)c(F)c1Nc1ccccc1 [Compound 12, 3,4-difluoro-2-(phenylamino)benzoic acid] | 10.4% |  | 7.1% |  |  |
| O=C(N[C@@H](CO)C(=O)O)c1ccc(F)c(F)c1Nc1ccc(I)cc1F [IC-3-111] |  |  |  | 85% |  |
| NC(=O)c1ccc(F)c(F)c1Nc1ccccc1F [SC-2-37, 3,4-difluoro-2-((2-fluorophenyl)amino)benzamide] | 56.1% |  | 52.8% |  | melting point: 157.6 to 161.2 °C |
| CCN(CC)C(=O)c1ccc(F)c(F)c1Nc1ccc(I)cc1F [Compound 9b, N,N-diethyl-3,4-difluoro-2-((2-fluoro-4-iodophenyl)amino)benzamide] |  |  | 5.5% | 5.5% | pERK-5 relative activity (%) [1]: 7.4%; cellular pERK5 activation (printed in the decrease column) [1]: activation (−7.4) % |
| O=C(NOC[C@H](O)CO)c1ccc(F)c(F)c1Nc1ccc(I)cc1F [PD 0325901, reference compound] | 95.9% |  | 99.7% |  |  |
| N#CC(=C(/N)Sc1ccccc1N)/C(C#N)=C(\N)Sc1ccccc1N [Compound U0126, reference compound] | 43% |  | 99.6% |  |  |
| COC(=O)c1ccc(F)c(F)c1Nc1ccc(I)cc1F [Compound 9e, Methyl 3,4-difluoro-2-((2-fluoro-4-iodophenyl)amino)benzoate] | 13.0% | 13% | 98.9% | 98.9% |  |
| CN1CCN(C(=O)c2ccccc2Nc2ccccc2)CC1 [Compound 23, (4-methylpiperazin-1-yl)(2-(phenylamino)phenyl)methanone] | 71% |  | 29.3% | 29.6% | cellular pERK1/2 activation (printed in the decrease column) [2]: +5.5% |
| CN1CCN(C(=O)c2ccc(F)c(F)c2Nc2ccccc2)CC1 [Compound 15] | 82.4% | 82.4% |  |  | pERK-½ relative activity (%) [2]: 8.5%; cellular pERK1/2 activation (printed in the decrease column) [2]: activation (+8.5) % |
| CCOc1cc(N2CCC(O)CC2)ccc1Nc1ncc2c(n1)N(C)c1ccccc1C(=O)N2C [XMD8-92, reference compound] | 95.2% |  | 50.1% |  |  |
| O=C(N[C@H](CO)C(=O)O)c1ccc(F)c(F)c1Nc1ccc(I)cc1F [IC-3-117] |  | 127% |  | 80.8% |  |
